Data from PubChem BioAssay AID1963423 (Molecular Pharmacology Branch, DTP, NCI, 2024).

Tested on: 439559-082-T-J2-PDC complex spheroid growth
Assay: Anticancer human tumor 439559-082-T-J2-PDC patient-derived colon adenocarcinoma cell line growth inhibition [Asc]
Conditions: for IC50: curve of first compound; for viability, T/C: stronger effect = lower value
How it was run: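 Stromal components (HUVEC and hMSC) are co-assembled with the cancer cells into multicellular spheroids. Drugs are then added singly or paired, at concentrations falling by half-log increments from a clinically achievable maximum, capped at 10 microM without known Cmax.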
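Also: spheroids exposed to agents for 7 days starting day 3 after seeding.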
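For viability, T/C in this document: percent of DMSO vehicle control viability with 100% = vehicle.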

Work on `NC(=O)C(=Cn1cnc(-c2cc(C(F)(F)F)cc(C(F)(F)F)c2)n1)c1cncnc1` + Cc1c(S(C)(=O)=O)c(-c2cc(F)cc(N3CCN(c4ccc(NS(=O)(=O)c5ccc(NC(CCN6CCC(C(=O)OCCCP(=O)(O)O)CC6)CSc6ccccc6)c(S(=O)(=O)C(F)(F)F)c5)cc4)CC3)c2)c(-c2ccc(Cl)cc2)n1C(C)C yielded an IC50 (second compound 0.1 µM) greater than 300 nM, an IC50 (second compound 0.316 µM) greater than 300 nM and an IC50 (second compound 1 µM) greater than 300 nM. The IC50 (second compound 3.16 µM) was greater than 300 nM, the IC50 (second compound 10 µM) was greater than 300 nM and the viability, T/C (second compound 0.1 µM, first compound 0.000949 µM) was 92%. For the same molecule, the viability, T/C (second compound 0.1 µM, first compound 0.003 µM) was 115%, the viability, T/C (second compound 0.1 µM, first compound 0.00949 µM) was 92.9% and the viability, T/C (second compound 0.1 µM, first compound 0.03 µM) was 87%. It also gave a viability, T/C (second compound 0.1 µM, first compound 0.0949 µM) of 82.7%, a viability, T/C (second compound 0.1 µM, first compound 0.3 µM) of 82.5% and a viability, T/C (second compound 0.316 µM, first compound 0.000949 µM) of 100%. It also gave a viability, T/C (second compound 0.316 µM, first compound 0.003 µM) of 101%, a viability, T/C (second compound 0.316 µM, first compound 0.00949 µM) of 94.9% and a viability, T/C (second compound 0.316 µM, first compound 0.03 µM) of 82.8%. The viability, T/C (second compound 0.316 µM, first compound 0.0949 µM) was 84.2%, the viability, T/C (second compound 0.316 µM, first compound 0.3 µM) was 75.5% and the viability, T/C (second compound 1 µM, first compound 0.000949 µM) was 92.8%. It also gave a viability, T/C (second compound 1 µM, first compound 0.003 µM) of 98.2%, a viability, T/C (second compound 1 µM, first compound 0.00949 µM) of 91.1% and a viability, T/C (second compound 1 µM, first compound 0.03 µM) of 78%. The viability, T/C (second compound 1 µM, first compound 0.0949 µM) was 75.7%, the viability, T/C (second compound 1 µM, first compound 0.3 µM) was 67.4% and the viability, T/C (second compound 3.16 µM, first compound 0.000949 µM) was 87%. It also gave a viability, T/C (second compound 3.16 µM, first compound 0.003 µM) of 93.8%, a viability, T/C (second compound 3.16 µM, first compound 0.00949 µM) of 94.7% and a viability, T/C (second compound 3.16 µM, first compound 0.03 µM) of 75.3%. It also gave a viability, T/C (second compound 3.16 µM, first compound 0.0949 µM) of 69.4%, a viability, T/C (second compound 3.16 µM, first compound 0.3 µM) of 64.5% and a viability, T/C (second compound 10 µM, first compound 0.000949 µM) of 76.3%. For the same molecule, the viability, T/C (second compound 10 µM, first compound 0.003 µM) was 73.6%, the viability, T/C (second compound 10 µM, first compound 0.00949 µM) was 75% and the viability, T/C (second compound 10 µM, first compound 0.03 µM) was 63.8%. It also gave a viability, T/C (second compound 10 µM, first compound 0.0949 µM) of 54.8% and a viability, T/C (second compound 10 µM, first compound 0.3 µM) of 56.6%.
For `NC1CCC(NC2CC2c2ccccc2)CC1` (stereo not given) + Cc1c(S(C)(=O)=O)c(-c2cc(F)cc(N3CCN(c4ccc(NS(=O)(=O)c5ccc(NC(CCN6CCC(C(=O)OCCCP(=O)(O)O)CC6)CSc6ccccc6)c(S(=O)(=O)C(F)(F)F)c5)cc4)CC3)c2)c(-c2ccc(Cl)cc2)n1C(C)C, the IC50 (second compound 0.1 µM) was greater than 100 nM, the IC50 (second compound 0.316 µM) was greater than 100 nM and the IC50 (second compound 1 µM) was greater than 100 nM. It also gave an IC50 (second compound 3.16 µM) greater than 100 nM, an IC50 (second compound 10 µM) greater than 100 nM and a viability, T/C (second compound 0.1 µM, first compound 0.000316 µM) of 101%. The viability, T/C (second compound 0.1 µM, first compound 0.001 µM) was 115%, the viability, T/C (second compound 0.1 µM, first compound 0.00316 µM) was 100% and the viability, T/C (second compound 0.1 µM, first compound 0.01 µM) was 93.1%. It also gave a viability, T/C (second compound 0.1 µM, first compound 0.0316 µM) of 113%, a viability, T/C (second compound 0.1 µM, first compound 0.1 µM) of 102% and a viability, T/C (second compound 0.316 µM, first compound 0.000316 µM) of 99.4%. The viability, T/C (second compound 0.316 µM, first compound 0.001 µM) was 114%, the viability, T/C (second compound 0.316 µM, first compound 0.00316 µM) was 104% and the viability, T/C (second compound 0.316 µM, first compound 0.01 µM) was 103%. It also gave a viability, T/C (second compound 0.316 µM, first compound 0.0316 µM) of 105%, a viability, T/C (second compound 0.316 µM, first compound 0.1 µM) of 113% and a viability, T/C (second compound 1 µM, first compound 0.000316 µM) of 96.6%. For the same molecule, the viability, T/C (second compound 1 µM, first compound 0.001 µM) was 107%, the viability, T/C (second compound 1 µM, first compound 0.00316 µM) was 117% and the viability, T/C (second compound 1 µM, first compound 0.01 µM) was 89.7%. It also gave a viability, T/C (second compound 1 µM, first compound 0.0316 µM) of 97.8%, a viability, T/C (second compound 1 µM, first compound 0.1 µM) of 104% and a viability, T/C (second compound 3.16 µM, first compound 0.000316 µM) of 95.2%. It also gave a viability, T/C (second compound 3.16 µM, first compound 0.001 µM) of 108%, a viability, T/C (second compound 3.16 µM, first compound 0.00316 µM) of 109% and a viability, T/C (second compound 3.16 µM, first compound 0.01 µM) of 90.8%. It also gave a viability, T/C (second compound 3.16 µM, first compound 0.0316 µM) of 89.9%, a viability, T/C (second compound 3.16 µM, first compound 0.1 µM) of 104% and a viability, T/C (second compound 10 µM, first compound 0.000316 µM) of 88.3%. The viability, T/C (second compound 10 µM, first compound 0.001 µM) was 96.4%, the viability, T/C (second compound 10 µM, first compound 0.00316 µM) was 87.1% and the viability, T/C (second compound 10 µM, first compound 0.01 µM) was 88.2%. The viability, T/C (second compound 10 µM, first compound 0.0316 µM) was 85.1% and the viability, T/C (second compound 10 µM, first compound 0.1 µM) was 86%.
